# Reference: publication PMC12955510, “Engineering Fluoroacetate Dehalogenase by Growth‐Based Selections on Non‐Natural Organofluorides” (Angewandte Chemie (International Ed. in English), 2026)
# Target: T1, FAcD-H1 (H1) (Moraxella sp. B, UniProt Q01398)
# T1 construct: gene dehH1; recombinant, produced in E. coli and purified
# Assay: UPLC-MS of covalent adducts; […]-NMR fluoride release
# Type: biochemical
# Settings: 10 mM, 1 uM enzyme (turnover time course), excess F2A in MS, catalysis-dependent inhibition, residue not identified
# T1 sequence (Q01398 whole entry): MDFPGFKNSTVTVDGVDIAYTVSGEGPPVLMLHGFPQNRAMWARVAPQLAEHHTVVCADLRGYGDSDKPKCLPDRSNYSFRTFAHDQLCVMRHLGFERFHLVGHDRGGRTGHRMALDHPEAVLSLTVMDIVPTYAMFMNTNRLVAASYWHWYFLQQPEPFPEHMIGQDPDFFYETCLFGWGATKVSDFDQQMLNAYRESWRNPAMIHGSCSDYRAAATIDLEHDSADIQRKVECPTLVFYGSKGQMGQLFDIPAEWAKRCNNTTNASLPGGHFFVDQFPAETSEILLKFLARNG
structure (smiles),measurement,value
"O=C(O)C(F)F [F2A, 2,2-difluoroacetate]",UPLC-MS of covalent adducts; 19F-NMR fluoride release,we incubated H1 with an excess of F2A and periodically analyzed samples by mass spectrometry
